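Values below derive from 48-hour exposures of cells grown in 96-well plates, with endpoints linearly interpolated between the two concentrations bracketing the appropriate inhibition level. At the TGI there is no net growth.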
Legend:
Assay in all cases: NCI anticancer screen, dose series, 48 h
SW-620 colon = system: SW-620 colon
ACHN renal = system: ACHN renal
NCI-H226 lung = system: NCI-H226 lung
SK-OV-3 ovarian = system: SK-OV-3 ovarian
HCT-116 colon = system: HCT-116 colon
OVCAR-8 ovarian = system: OVCAR-8 ovarian
UACC-62 melanoma = system: UACC-62 melanoma
CCRF-CEM leukemia = system: CCRF-CEM leukemia
NCI-H23 lung = system: NCI-H23 lung
OVCAR-4 ovarian = system: OVCAR-4 ovarian
XF 498 CNS = system: XF 498 CNS
LXFL 529 NSCLC = system: LXFL 529 NSCLC
SNB-75 CNS = system: SNB-75 CNS
DMS 114 small cell lung = system: DMS 114 small cell lung
OVCAR-5 ovarian = system: OVCAR-5 ovarian
HT29 colon = system: HT29 colon
UO-31 renal = system: UO-31 renal
A549 NSCLC = system: A549 NSCLC
KM20L2 colon = system: KM20L2 colon
RXF-631 renal = system: RXF-631 renal
SN12C renal = system: SN12C renal
SF-539 CNS = system: SF-539 CNS
RPMI-8226 leukemia = system: RPMI-8226 leukemia
COLO 205 colon = system: COLO 205 colon
UACC-257 melanoma = system: UACC-257 melanoma
DMS 273 small cell lung = system: DMS 273 small cell lung
SNB-19 CNS = system: SNB-19 CNS
HOP-18 NSCLC = system: HOP-18 NSCLC
M19-MEL melanoma = system: M19-MEL melanoma
IGROV1 ovarian = system: IGROV1 ovarian
SF-268 CNS = system: SF-268 CNS
MOLT-4 leukemia = system: MOLT-4 leukemia
HL-60(TB) leukemia = system: HL-60(TB) leukemia
K-562 leukemia = system: K-562 leukemia
HOP-92 NSCLC = system: HOP-92 NSCLC
DLD-1 colon = system: DLD-1 colon
M14 melanoma = system: M14 melanoma
786-0 renal = system: 786-0 renal
CAKI-1 renal = system: CAKI-1 renal
HOP-62 NSCLC = system: HOP-62 NSCLC
TK-10 renal = system: TK-10 renal
LOX IMVI melanoma = system: LOX IMVI melanoma
KM12 colon = system: KM12 colon
SK-MEL-28 melanoma = system: SK-MEL-28 melanoma
SF-295 CNS = system: SF-295 CNS
HCC-2998 colon = system: HCC-2998 colon
U251 CNS = system: U251 CNS
RXF 393 renal = system: RXF 393 renal
SR leukemia = system: SR leukemia
EKVX NSCLC = system: EKVX NSCLC
NCI-H460 lung = system: NCI-H460 lung
OVCAR-3 ovarian = system: OVCAR-3 ovarian
SNB-78 CNS = system: SNB-78 CNS
A498 renal = system: A498 renal
MALME-3M melanoma = system: MALME-3M melanoma
NCI-H522 lung = system: NCI-H522 lung
SK-MEL-2 melanoma = system: SK-MEL-2 melanoma
SK-MEL-5 melanoma = system: SK-MEL-5 melanoma
HCT-15 colon = system: HCT-15 colon

Nc1nc(-c2ccccc2)cc(-c2ccccc2O)n1
TGI (SW-620 colon): > 100 µM
TGI (ACHN renal): > 100 µM
TGI (NCI-H226 lung): 53.2 µM
TGI (SK-OV-3 ovarian): > 100 µM
TGI (HCT-116 colon): 49 µM
TGI (OVCAR-8 ovarian): > 100 µM
TGI (UACC-62 melanoma): > 100 µM
TGI (CCRF-CEM leukemia): > 100 µM
TGI (NCI-H23 lung): > 100 µM
TGI (OVCAR-4 ovarian): > 100 µM
TGI (XF 498 CNS): > 100 µM
TGI (LXFL 529 NSCLC): > 100 µM
TGI (SNB-75 CNS): 82.4 µM
TGI (DMS 114 small cell lung): > 100 µM
TGI (OVCAR-5 ovarian): 68.2 µM
TGI (HT29 colon): > 100 µM
TGI (UO-31 renal): 28.7 µM
TGI (A549 NSCLC): > 100 µM
TGI (KM20L2 colon): > 100 µM
TGI (RXF-631 renal): > 100 µM
TGI (SN12C renal): > 100 µM
TGI (SF-539 CNS): > 100 µM
TGI (RPMI-8226 leukemia): 75.8 µM
TGI (COLO 205 colon): > 100 µM
TGI (UACC-257 melanoma): > 100 µM
TGI (DMS 273 small cell lung): > 100 µM
TGI (SNB-19 CNS): > 100 µM
TGI (HOP-18 NSCLC): > 100 µM
TGI (M19-MEL melanoma): > 100 µM
TGI (IGROV1 ovarian): > 100 µM
TGI (SF-268 CNS): > 100 µM
TGI (MOLT-4 leukemia): 80.2 µM
TGI (HL-60(TB) leukemia): 43.5 µM
TGI (K-562 leukemia): > 100 µM
TGI (HOP-92 NSCLC): > 100 µM
TGI (DLD-1 colon): > 100 µM
TGI (M14 melanoma): > 100 µM
TGI (786-0 renal): > 100 µM
TGI (CAKI-1 renal): > 100 µM
TGI (HOP-62 NSCLC): 74.9 µM
TGI (TK-10 renal): 98.2 µM
TGI (LOX IMVI melanoma): > 100 µM
TGI (KM12 colon): 79.5 µM
TGI (SK-MEL-28 melanoma): > 100 µM
TGI (SF-295 CNS): > 100 µM
TGI (HCC-2998 colon): > 100 µM
TGI (U251 CNS): > 100 µM
TGI (RXF 393 renal): 53.9 µM
TGI (SR leukemia): > 100 µM
TGI (EKVX NSCLC): > 100 µM
TGI (NCI-H460 lung): > 100 µM
TGI (OVCAR-3 ovarian): > 100 µM
TGI (SNB-78 CNS): > 100 µM
TGI (A498 renal): > 100 µM
TGI (MALME-3M melanoma): > 100 µM
TGI (NCI-H522 lung): > 100 µM

O=[N+]([O-])c1ccc(N=Nc2c(O)[nH]c3ccc(Br)cc23)cc1
TGI (SW-620 colon): > 100 µM
TGI (ACHN renal): 42.7 µM
TGI (NCI-H226 lung): 37.2 µM
TGI (SK-OV-3 ovarian): 45.6 µM
TGI (HCT-116 colon): 80.1 µM
TGI (OVCAR-8 ovarian): 28.3 µM
TGI (UACC-62 melanoma): > 51.2 µM
TGI (CCRF-CEM leukemia): > 49.1 µM
TGI (NCI-H23 lung): > 51.3 µM
TGI (OVCAR-4 ovarian): 33.4 µM
TGI (XF 498 CNS): 53.7 µM
TGI (LXFL 529 NSCLC): > 68.7 µM
TGI (SNB-75 CNS): > 48.1 µM
TGI (DMS 114 small cell lung): 47.7 µM
TGI (HT29 colon): > 100 µM
TGI (UO-31 renal): > 73.5 µM
TGI (A549 NSCLC): 44.9 µM
TGI (KM20L2 colon): > 100 µM
TGI (RXF-631 renal): 33 µM
TGI (SN12C renal): > 31.6 µM
TGI (SF-539 CNS): 32.1 µM
TGI (RPMI-8226 leukemia): 45.6 µM
TGI (COLO 205 colon): > 68.7 µM
TGI (UACC-257 melanoma): 43.4 µM
TGI (DMS 273 small cell lung): 24 µM
TGI (SNB-19 CNS): 36.6 µM
TGI (HOP-18 NSCLC): 40.6 µM
TGI (M19-MEL melanoma): 34.7 µM
TGI (IGROV1 ovarian): > 53.2 µM
TGI (SK-MEL-2 melanoma): 99.2 µM
TGI (SF-268 CNS): 34.8 µM
TGI (MOLT-4 leukemia): > 51.7 µM
TGI (HL-60(TB) leukemia): 25.2 µM
TGI (K-562 leukemia): > 43 µM
TGI (HOP-92 NSCLC): 26.5 µM
TGI (DLD-1 colon): > 46.8 µM
TGI (M14 melanoma): > 52.8 µM
TGI (786-0 renal): 25.2 µM
TGI (CAKI-1 renal): > 58.4 µM
TGI (HOP-62 NSCLC): 33.8 µM
TGI (TK-10 renal): 36 µM
TGI (LOX IMVI melanoma): 48.8 µM
TGI (KM12 colon): > 100 µM
TGI (SK-MEL-5 melanoma): > 68 µM
TGI (SK-MEL-28 melanoma): 32.9 µM
TGI (SF-295 CNS): 25 µM
TGI (HCC-2998 colon): > 100 µM
TGI (U251 CNS): 38.2 µM
TGI (RXF 393 renal): 35.6 µM
TGI (HCT-15 colon): > 74.3 µM
TGI (SR leukemia): > 53.9 µM
TGI (EKVX NSCLC): 58.9 µM
TGI (NCI-H460 lung): > 46.5 µM
TGI (OVCAR-3 ovarian): 45.9 µM
TGI (SNB-78 CNS): 42.3 µM
TGI (A498 renal): 49.1 µM
TGI (MALME-3M melanoma): 58 µM
TGI (NCI-H522 lung): > 87.7 µM

Reference: PubChem BioAssay (NCI)
